{"source": "patent US9701670B2", "about": "“Pyrazolyl-ureas as kinase inhibitors” (RESPIVERT LIMITED, priority 2013, dated 2017)", "key": {"[1]": {"experiment": "Cryopreserved hepatocyte stability", "type": "in vitro ADME", "conditions": "scaled from intrinsic clearance, mean of two experiments", "procedure": "Formulae CIint(tissue clearance) mL/min/kg=[0.693/t½(min)]×[1/microsomal protein concentration mg/mL]×[mg microsomes/g liver]×[g liver/kg body weight] […] The incubations were performed at 37° C. with 100 μL samples taken from the incubation, at 0, 10, 20, 45 and 90 minutes, and reactions terminated by addition of 100 μL of acetonitrile containing carbamazepine as analytical internal standard. […] Half-life values were calculated from the relationship T1/2(min)=−0.693/λ • where λ was the slope of the Ln concentration vs time curve. • Standard compounds testosterone, midazolam and 4-methylumbelliferone are included in the assay design.\nCIint(Tissue Clearance) mL/min/kg=[0.693/t½(min)]×[1/hepatocyte concentration (million cells/mL)]×[million cells/g liver]×[g liver/kg body weight] CIint(Hepatic clearance) mL/min/kg=hepatic blood flow×CIint/(hepatic blood flow+CIint) Hepatic extraction ratio (Eh)=CIint(Hepatic clearance) mL/min/kg/hepatic blood flow (mL/min/kg)"}, "[2]": {"experiment": "Pharmacokinetics and total colon tissue distribution in mice", "type": "in vivo, male C57BL/6 mice", "conditions": "male, Mouse, 5 mg/kg p.o.", "procedure": "Studies were conducted by Sai Life Sciences (Hinjewadi, Pune, India) to investigate the pharmacokinetics and total colon tissue distribution of the compound of Example 77 in male C57BL/6 mice following a single oral administration.\nA group of twenty one male mice were dosed with a suspension formulation (in peanut oil) of the compound of Example 77, at a dose of 5 mg/kg. Blood samples (approximately 60 μL) were collected from retro orbital plexus such that the samples were obtained at 1, 2, 4, 6, 8, 12 and 24 hr. The blood samples were collected from a set of three mice at each time point in labelled micro centrifuge tube containing K2EDTA as anticoagulant. Plasma samples were separated by centrifugation at 4000 rpm for 10 min of whole blood and stored below −70° C. until bioanalysis. After collection of blood sample, animals were humanely euthanized by carbon dioxide asphyxiation to collect total colon tissues. The colons were flushed with cold phosphate buffer saline (pH 7.4) to remove contents. The total colon tissues were homogenized with cold phosphate buffer saline (pH 7.4) of twice the weight of colon tissue and stored below −70° C. Total volume was three times the total colon tissue weights. All samples were processed for analysis by protein precipitation using acetonitrile and analyzed with developed LC-MS/MS method (LLOQ: 2.02 ng/mL in plasma and 1.01 ng/mL in colon tissue). Pharmacokinetic parameters were calculated using the non-compartmental analysis tool of Phoenix WinNonlin® software (version 6.3)."}, "[3]": {"test_system": "β-catenin in d-U937 cells", "experiment": "(m) Accumulation of β catenin in d-U937 cells", "type": "cell-based, human", "outline": "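PMA-differentiated U937 macrophage-type cells (100 ng/mL, 48–72 hr) were exposed to test compound or vehicle for 18 hr, then fixed. β-catenin was measured by cell ELISA (HRP/TMB, OD450-655) and normalised to crystal violet OD595. Signals below 15% of the standard control were designated \"-ve\".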"}, "[4]": {"conditions": "C57BL/6, total colon tissue, po, Total colon"}}}
{"smiles": "C#Cc1cc(Nc2nccc(Oc3ccc(NC(=O)Nc4cc(C(C)(C)C)nn4-c4ccc(OC)cc4)c4ccccc34)n2)cc(C(=O)NCCN2CCOCC2)c1", "note": "[Example 77, 3-((4-((4-(3-(3-(tert-Butyl)-1-(4-methoxyphenyl)-1H-pyrazol-5-yl)ureido)-naphthalen-1-yl)oxy)pyrimidin-2-yl)amino)-5-ethynyl-N-(2-morpholinoethyl)benzamide]", "values": [{"measurement": "Mean hepatic extraction ratio (Eh)", "setting": "[1]; dog hepatocytes", "result": 0.87}, {"measurement": "Mean hepatic extraction ratio (Eh)", "setting": "[1]; human hepatocytes", "result": 0.69}, {"measurement": "Mean hepatic extraction ratio (Eh)", "setting": "[1]; rat hepatocytes", "result": 0.55}, {"measurement": "AUC(0-inf)", "setting": "[2]; C57BL/6, po, Plasma", "result": 29, "unit": "ng·h/mL"}, {"measurement": "AUC(0-t)", "setting": "[2]; C57BL/6, po, Plasma", "result": 22, "unit": "ng·h/mL"}, {"measurement": "Cmax", "setting": "[2]; C57BL/6, po, Plasma", "result": 3.5, "unit": "ng/mL"}, {"measurement": "Tmax", "setting": "[2]; C57BL/6, po, Plasma", "result": 1, "unit": "h"}, {"measurement": "AUC(0-inf)", "setting": "[2]; [4]", "result": 9280, "unit": "ng·h/mL"}, {"measurement": "AUC(0-t)", "setting": "[2]; [4]", "result": 7480, "unit": "ng·h/mL"}, {"measurement": "Cmax", "setting": "[2]; [4]", "result": 1070, "unit": "ng/mL"}, {"measurement": "Tmax", "setting": "[2]; [4]", "result": 4, "unit": "h"}, {"measurement": "% β-catenin induction", "setting": "[3]; 1 μg/mL test compound", "result": 1, "unit": "%"}, {"measurement": "% β-catenin induction", "setting": "[3]; 5 μg/mL test compound", "result": 0, "unit": "%"}, {"measurement": "% β-catenin induction", "setting": "[3]; 10 μg/mL test compound", "result": "−8", "unit": "%"}]}
